Measured values taken from patent publication US10087404B2, “Biological corrosion inhibitor for metals” (KURARAY CO., LTD., priority 2014, dated 2018).

Assays:
[1] = test system: strain Methanococcus maripaludis KA-1; test: Biological corrosion suppression test (eluted iron concentration from iron flake); assay type: cell-based; conditions: 37° C., eluted iron measured at 7, 14, 21 and 28 days
Experimental: A biological corrosion suppression test of 3-Methylglutaraldehyde was performed as follows.
The liquid A was purged with a N2 gas for approximately 10 minutes and heated in an autoclave at 121° C. for 20 minutes, and then the liquid C, liquid E, liquid S, and liquid V were added thereto. 20 ml of the resulting mixture liquid was introduced into each of vials containing a sterilized iron flake (0.08 g of iron foil (10 mm length×10 mm width×0.1 mm thickness: Sigma-Aldrich 356808-G)). Each vial was purged with a gas (CO2 gas was mixed into N2 gas so as to give final concentration of 20% CO2 gas) for 5 minutes and then quickly closed with a butyl rubber cap, and the cap was fixed securely with an aluminum seal. After that, 0.5 ml (10^6 to 10^9 cells/ml) of the strain Methanococcus maripaludis KA-1 was added with a syringe, and 3-methylglutaraldehyde was further added so as to give the concentration shown in FIG. 1. Each vial was allowed to stand at 37° C., and the concentration of eluted iron was measured at 7 days, 14 days, 21 days, and 28 days for checking the progress of the biological corrosion of the iron flake. […]

[2] = Contact of acetal compound A with hydrochloric acid aqueous solution pH 4.0, analysed by gas chromatography; assay type: physicochemical; conditions: nitrogen atmosphere
Experimental: Hydrochloric acid was added to distilled water to adjust the pH to 4.0, thereby preparing a hydrochloric acid aqueous solution. To 100 g of the hydrochloric acid solution was added 2.0 g of an acetal compound represented by the following formula:
[drawing 5] (hereinunder, referred to as acetal compound A), and the mixture was stirred at 80° C. under nitrogen atmosphere. After 1 hour, a part was taken and analyzed by a gas chromatography. As a result, it was confirmed that 97.2% of the acetal compound A was consumed and 3-methylglutaraldehyde was produced at 82.6%. [Conditions of Gas Chromatography]
Hydrochloric acid was added to distilled water to adjust the pH to 4.0, thereby preparing a hydrochloric acid aqueous solution. To 100 g of the hydrochloric acid solution was added 2.0 g of the acetal compound A, and the mixture was stirred at 30° C. under nitrogen atmosphere. After 50 hours, a part was taken and analyzed by a gas chromatography in the same manner as in Example 3. As a result, it was confirmed that 52.5% of the acetal compound A was consumed and 3-methylglutaraldehyde was produced at 47.3%.

| SMILES | addition concentration at which the concentration of eluted iron was suppressed to a sufficiently low level [1] | acetal compound A consumed ([2]; hydrochloric acid aqueous solution pH 4.0, 30° C., after 50 hours) | acetal compound A consumed ([2]; hydrochloric acid aqueous solution pH 4.0, 80° C., after 1 hour) |
| --- | --- | --- | --- |
| CC(CC=O)CC=O [3-methylglutaraldehyde] | 1 ppm | – | – |
| CC(CC=O)CC1OCCO1 (stereo not shown) [acetal compound A] | – | 52.5% | 97.2% |
| O=CCCCC=O [glutaraldehyde, reference compound] | 100 ppm | – | – |
